Test system: test plant species
Test: Post-emergent herbicidal activity test (greenhouse, foliar spray, visual growth reduction)
Type: in vivo
Conditions: post-emergence, 336 h, ALOMY: blackgrass (Alopecurus myosuroides), 140 g ai/ha, 14 days after application, read-out: Visual Growth Reduction (%) 14 Days After Application, ALOMY
Summary of the method: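 Visual percent injury (0-100) rated 14 d after treatment, relative to nontreated and solvent-blank plants. Test plants at first or second true leaf stage received an overhead track-sprayer application at 187 L/ha. Compounds were formulated in aqueous acetone/DMSO carrier containing crop oil concentrate and X-77 surfactant.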

Compound | pest or weed control at 140 g/ha
COC(=O)c1nc(-c2ccc(Cl)cc2)cc(Cl)c1Cl [F80, Methyl 3,4-dichloro-6-(4-chlorophenyl) picolinate] | 0 to 29%
COC(=O)c1nc(-c2ccc(C(F)(F)F)cc2)c(Cl)cc1Cl [F106, Methyl 3,5-dichloro-6-(4-(trifluoromethyl)phenyl)picolinate] | 0 to 29%

Same assay, conditions: post-emergence, 336 h, AMARE: redroot pigweed (Amaranthus retroflexus), 140 g ai/ha, 14 days after application, read-out: Visual Growth Reduction (%) 14 Days After Application, AMARE

Compound | pest or weed control at 140 g/ha
COC(=O)c1nc(-c2ccc(Cl)cc2)cc(Cl)c1Cl [F80, Methyl 3,4-dichloro-6-(4-chlorophenyl) picolinate] | 60 to 74%
COC(=O)c1nc(-c2ccc(C(F)(F)F)cc2)c(Cl)cc1Cl [F106, Methyl 3,5-dichloro-6-(4-(trifluoromethyl)phenyl)picolinate] | 45 to 59%

Same assay, conditions: post-emergence, 336 h, AVEFA: wild oat (Avena fatua), 140 g ai/ha, 14 days after application, read-out: Visual Growth Reduction (%) 14 Days After Application, AVEFA

Compound | pest or weed control at 140 g/ha
COC(=O)c1nc(-c2ccc(Cl)cc2)cc(Cl)c1Cl [F80, Methyl 3,4-dichloro-6-(4-chlorophenyl) picolinate] | 0 to 29%
COC(=O)c1nc(-c2ccc(C(F)(F)F)cc2)c(Cl)cc1Cl [F106, Methyl 3,5-dichloro-6-(4-(trifluoromethyl)phenyl)picolinate] | 0 to 29%

Same assay, conditions: post-emergence, 336 h, CHEAL: lambsquarters (Chenopodium album), 140 g ai/ha, 14 days after application, read-out: Visual Growth Reduction (%) 14 Days After Application, CHEAL

Compound | pest or weed control at 140 g/ha
COC(=O)c1nc(-c2ccc(Cl)cc2)cc(Cl)c1Cl [F80, Methyl 3,4-dichloro-6-(4-chlorophenyl) picolinate] | 30 to 44%
COC(=O)c1nc(-c2ccc(C(F)(F)F)cc2)c(Cl)cc1Cl [F106, Methyl 3,5-dichloro-6-(4-(trifluoromethyl)phenyl)picolinate] | 30 to 44%

Same assay, conditions: post-emergence, 336 h, CIRAR: canada thistle (Cirsium arvense), 140 g ai/ha, 14 days after application, read-out: Visual Growth Reduction (%) 14 Days After Application, CIRAR

Compound | pest or weed control at 140 g/ha
COC(=O)c1nc(-c2ccc(Cl)cc2)cc(Cl)c1Cl [F80, Methyl 3,4-dichloro-6-(4-chlorophenyl) picolinate] | 0 to 29%
COC(=O)c1nc(-c2ccc(C(F)(F)F)cc2)c(Cl)cc1Cl [F106, Methyl 3,5-dichloro-6-(4-(trifluoromethyl)phenyl)picolinate] | 0 to 29%

Same assay, conditions: post-emergence, 336 h, CYPES: yellow nutsedge (Cyperus esculentus), 140 g ai/ha, 14 days after application, read-out: Visual Growth Reduction (%) 14 Days After Application, CYPES

Compound | pest or weed control at 140 g/ha
COC(=O)c1nc(-c2ccc(Cl)cc2)cc(Cl)c1Cl [F80, Methyl 3,4-dichloro-6-(4-chlorophenyl) picolinate] | 0 to 29%
COC(=O)c1nc(-c2ccc(C(F)(F)F)cc2)c(Cl)cc1Cl [F106, Methyl 3,5-dichloro-6-(4-(trifluoromethyl)phenyl)picolinate] | 0 to 29%

Same assay, conditions: post-emergence, 336 h, DIGSA: crabgrass (Digitaria sanguinalis), 140 g ai/ha, 14 days after application, read-out: Visual Growth Reduction (%) 14 Days After Application, DIGSA

Compound | pest or weed control at 140 g/ha
COC(=O)c1nc(-c2ccc(Cl)cc2)cc(Cl)c1Cl [F80, Methyl 3,4-dichloro-6-(4-chlorophenyl) picolinate] | 0 to 29%
COC(=O)c1nc(-c2ccc(C(F)(F)F)cc2)c(Cl)cc1Cl [F106, Methyl 3,5-dichloro-6-(4-(trifluoromethyl)phenyl)picolinate] | 45 to 59%

Same assay, conditions: post-emergence, 336 h, ECHCG: barnyardgrass (Echinochloa crus-galli), 140 g ai/ha, 14 days after application, read-out: Visual Growth Reduction (%) 14 Days After Application, ECHCG

Compound | pest or weed control at 140 g/ha
COC(=O)c1nc(-c2ccc(Cl)cc2)cc(Cl)c1Cl [F80, Methyl 3,4-dichloro-6-(4-chlorophenyl) picolinate] | 0 to 29%
COC(=O)c1nc(-c2ccc(C(F)(F)F)cc2)c(Cl)cc1Cl [F106, Methyl 3,5-dichloro-6-(4-(trifluoromethyl)phenyl)picolinate] | 0 to 29%

Same assay, conditions: post-emergence, 336 h, IPOHE: ivy-leaf morning glory (Ipomoea hederacea), 140 g ai/ha, 14 days after application, read-out: Visual Growth Reduction (%) 14 Days After Application, IPOHE

Compound | pest or weed control at 140 g/ha
COC(=O)c1nc(-c2ccc(Cl)cc2)cc(Cl)c1Cl [F80, Methyl 3,4-dichloro-6-(4-chlorophenyl) picolinate] | 45 to 59%
COC(=O)c1nc(-c2ccc(C(F)(F)F)cc2)c(Cl)cc1Cl [F106, Methyl 3,5-dichloro-6-(4-(trifluoromethyl)phenyl)picolinate] | 45 to 59%

Same assay, conditions: post-emergence, 336 h, KCHSC: kochia (Bassia scoparia), 140 g ai/ha, 14 days after application, read-out: Visual Growth Reduction (%) 14 Days After Application, KCHSC

Compound | pest or weed control at 140 g/ha
COC(=O)c1nc(-c2ccc(C(F)(F)F)cc2)c(Cl)cc1Cl [F106, Methyl 3,5-dichloro-6-(4-(trifluoromethyl)phenyl)picolinate] | 0 to 29%

Same assay, conditions: post-emergence, 336 h, ORYSA: rice (Oryza sativa), 140 g ai/ha, 14 days after application, read-out: Visual Growth Reduction (%) 14 Days After Application, ORYSA

Compound | pest or weed control at 140 g/ha
COC(=O)c1nc(-c2ccc(Cl)cc2)cc(Cl)c1Cl [F80, Methyl 3,4-dichloro-6-(4-chlorophenyl) picolinate] | 0 to 29%
COC(=O)c1nc(-c2ccc(C(F)(F)F)cc2)c(Cl)cc1Cl [F106, Methyl 3,5-dichloro-6-(4-(trifluoromethyl)phenyl)picolinate] | 0 to 29%

Same assay, conditions: post-emergence, 336 h, SETFA: giant foxtail (Setaria faberi), 140 g ai/ha, 14 days after application, read-out: Visual Growth Reduction (%) 14 Days After Application, SETFA

Compound | pest or weed control at 140 g/ha
COC(=O)c1nc(-c2ccc(Cl)cc2)cc(Cl)c1Cl [F80, Methyl 3,4-dichloro-6-(4-chlorophenyl) picolinate] | 0 to 29%
COC(=O)c1nc(-c2ccc(C(F)(F)F)cc2)c(Cl)cc1Cl [F106, Methyl 3,5-dichloro-6-(4-(trifluoromethyl)phenyl)picolinate] | 0 to 29%

Same assay, conditions: post-emergence, 336 h, SORVU: grain sorghum (Sorghum vulgare), 140 g ai/ha, 14 days after application, read-out: Visual Growth Reduction (%) 14 Days After Application, SORVU

Compound | pest or weed control at 140 g/ha
COC(=O)c1nc(-c2ccc(Cl)cc2)cc(Cl)c1Cl [F80, Methyl 3,4-dichloro-6-(4-chlorophenyl) picolinate] | 0 to 29%
COC(=O)c1nc(-c2ccc(C(F)(F)F)cc2)c(Cl)cc1Cl [F106, Methyl 3,5-dichloro-6-(4-(trifluoromethyl)phenyl)picolinate] | 30 to 44%

Same assay, conditions: post-emergence, 336 h, STEME: common chickweed (Stellaria media), 140 g ai/ha, 14 days after application, read-out: Visual Growth Reduction (%) 14 Days After Application, STEME

Compound | pest or weed control at 140 g/ha
COC(=O)c1nc(-c2ccc(Cl)cc2)cc(Cl)c1Cl [F80, Methyl 3,4-dichloro-6-(4-chlorophenyl) picolinate] | 0 to 29%
COC(=O)c1nc(-c2ccc(C(F)(F)F)cc2)c(Cl)cc1Cl [F106, Methyl 3,5-dichloro-6-(4-(trifluoromethyl)phenyl)picolinate] | 0 to 29%

Same assay, conditions: post-emergence, 336 h, TRZAS: wheat, spring (Triticum aestivum), 140 g ai/ha, 14 days after application, read-out: Visual Growth Reduction (%) 14 Days After Application, TRZAS

Compound | pest or weed control at 140 g/ha
COC(=O)c1nc(-c2ccc(Cl)cc2)cc(Cl)c1Cl [F80, Methyl 3,4-dichloro-6-(4-chlorophenyl) picolinate] | 0 to 29%
COC(=O)c1nc(-c2ccc(C(F)(F)F)cc2)c(Cl)cc1Cl [F106, Methyl 3,5-dichloro-6-(4-(trifluoromethyl)phenyl)picolinate] | 0 to 29%

Reference: patent US20230017045A1, “PYRIDINE AND PYRIMIDINE CARBOXYLATE HERBICIDES AND METHODS OF USE THEREOF” (Dow AgroSciences LLC, priority 2017, published 2023)
